Counter-ions that a name gives are not always drawn. Each block holds one compound with its values, some of them ahead of it.
What was measured:
mu opioid receptor (MOR) = mu opioid receptor (MOR) (Homo sapiens, UniProt P35372); test: SPA-based GTP-γ-S binding assay, antagonist mode, mu; type: biochemical; details: antagonist assay against DAMGO 1 micromolar; Kb by Cheng-Prusoff equation; read-out: In Vitro Antagonism GTP-γ-S Kb Mu
Experimental: (§1) An SPA—based GTP-γ-S assay format was developed based on previous opioid (Emmerson et al., J. Pharm Exp Ther 278, 1121, 1996; Horng et al., Society for Neuroscience Abstracts, 434.6, 2000) and muscarinic (DeLapp et al., JPET 289, 946, 1999) assay formats. Membranes were re-suspended in 20 mM HEPES, 100 mM NaCl, 5 mM MgCl2, 1 mM DTT, and 1 mM EDTA. Fifty (50) […] of GTP-γ-[35S], compound, membrane suspension (20 microgram/well), and wheat germ agglutinin coated SPA beads (1 mg/well) were added to clear bottom 96 well assay plates. GDP ([…]) was added to the membrane solution prior to addition to the assay plates. Plates were sealed and incubated for four hours at room temperature then placed in a refrigerator overnight to allow the beads to settle. Signal stability at 4° C. was determined to be >60 hours. Plates were warmed to room temperature and counted in a Wallac Microbeta scintillation counter. For antagonist assays, specific agonists were added at the following concentrations: (MOR) DAMGO 1 micromolar, (DOR) DPDPE 30 nM, (KOR) U69593 300 nM. Kb's were determined by Cheng-Prusoff equation (see Cheng and Prusoff, Biochem. Pharmacol. 22, 3099, 1973).

[1] = target: kappa opioid receptor (KOR) (Homo sapiens, UniProt P41145); test: SPA-based GTP-γ-S binding assay, antagonist mode, kappa; type: biochemical; details: antagonist assay against U69593 300 nM; Kb by Cheng-Prusoff equation; read-out: In Vitro Antagonism GTP-γ-S Kb Kappa
Sequence of kappa opioid receptor (KOR) (P41145 whole entry): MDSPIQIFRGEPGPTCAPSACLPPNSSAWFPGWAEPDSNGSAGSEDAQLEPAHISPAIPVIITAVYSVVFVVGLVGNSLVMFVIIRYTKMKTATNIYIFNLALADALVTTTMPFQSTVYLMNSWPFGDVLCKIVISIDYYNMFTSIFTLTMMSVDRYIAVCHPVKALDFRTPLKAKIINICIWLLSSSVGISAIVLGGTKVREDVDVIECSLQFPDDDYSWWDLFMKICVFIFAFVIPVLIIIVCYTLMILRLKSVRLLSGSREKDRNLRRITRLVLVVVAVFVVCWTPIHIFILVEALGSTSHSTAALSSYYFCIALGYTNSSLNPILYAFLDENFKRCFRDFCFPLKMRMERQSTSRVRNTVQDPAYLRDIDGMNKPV
Experimental: as §1

[2] = target: delta opioid receptor (DOR) (Homo sapiens, UniProt P41143); test: SPA-based GTP-γ-S binding assay, antagonist mode, delta; type: biochemical; details: antagonist assay against DPDPE 30 nM; Kb by Cheng-Prusoff equation; read-out: In Vitro Antagonism GTP-γ-S Kb Delta
Sequence of delta opioid receptor (DOR) (P41143 whole entry): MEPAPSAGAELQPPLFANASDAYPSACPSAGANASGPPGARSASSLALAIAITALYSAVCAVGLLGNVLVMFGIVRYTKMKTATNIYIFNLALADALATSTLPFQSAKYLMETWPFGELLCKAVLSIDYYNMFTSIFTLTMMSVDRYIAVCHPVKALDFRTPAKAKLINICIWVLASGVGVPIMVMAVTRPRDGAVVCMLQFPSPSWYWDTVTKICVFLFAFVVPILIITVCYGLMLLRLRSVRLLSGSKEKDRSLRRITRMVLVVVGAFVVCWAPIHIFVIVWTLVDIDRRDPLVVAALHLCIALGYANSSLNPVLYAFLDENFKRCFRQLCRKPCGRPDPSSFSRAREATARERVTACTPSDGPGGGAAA
Experimental: as §1

[3] = system: mu, delta and kappa receptors in rat striatum/nucleus accumbens; test: Ex-vivo receptor binding of 3H-diprenorphine in rat brain after oral dosing; details: 7 mg/kg p.o., 6 hours after administration, striatum/nucleus accumbens homogenate, versus vehicle
Diet Induced Obese Rat = test: Indirect calorimetry assay (food consumption, energy balance); type: in vivo; details: for minimal effective dose: Rattus norvegicus, po, lowest dose with food consumption over 24 hours significantly different from vehicle, read-out: Inhibition of Feeding Diet Induced Obese Rat Minimum Effective Dose (MED); for Energy Balance Diet Induced Obese Rat: test dose 3 mg/kg, p.o., energy balance = caloric intake minus utilization
Experimental: Indirect Calorimetry Assay
Twenty-four-hour energy expenditure (EE) and respiratory quotient (RQ) were measured by indirect calorimetry using an open circuit calorimetry system (Oxymax, Columbus Instruments Int. Corp., USA). RQ is the ratio of the volume of CO2 produced (VCO2) to the volume of O2 consumed (VO2). EE was calculated as the product of calorific value of oxygen (CV) and VO2 per kilogram of body weight, where CV=3.815+1.232 (RQ). Total calories expended were calculated to determine daily fuel utilization. To calculate the proportion of protein, fat and carbohydrate that is used during that 24-hour period, we used Flatt's proposal (see, Flatt J P 1991 Assessment of daily and cumulative carbohydrate and fat balances in mice. J Nutr Biochem 2:193-202.) and formulae as well as other derived constants (see Elia M, Livesey G 1992 Energy expenditure and fuel selection in biological systems: the theory and practice of calculations based on indirect calorimetry and tracer methods. World Rev Nutr Diet 70:68-131.). Food consumption over the 24-hour period was also measured. […] Results obtained for a sample of compounds of the invention with the indirect calorimetry assay are shown below in Table 4.

Sequence of mu opioid receptor (MOR) (P35372 whole entry): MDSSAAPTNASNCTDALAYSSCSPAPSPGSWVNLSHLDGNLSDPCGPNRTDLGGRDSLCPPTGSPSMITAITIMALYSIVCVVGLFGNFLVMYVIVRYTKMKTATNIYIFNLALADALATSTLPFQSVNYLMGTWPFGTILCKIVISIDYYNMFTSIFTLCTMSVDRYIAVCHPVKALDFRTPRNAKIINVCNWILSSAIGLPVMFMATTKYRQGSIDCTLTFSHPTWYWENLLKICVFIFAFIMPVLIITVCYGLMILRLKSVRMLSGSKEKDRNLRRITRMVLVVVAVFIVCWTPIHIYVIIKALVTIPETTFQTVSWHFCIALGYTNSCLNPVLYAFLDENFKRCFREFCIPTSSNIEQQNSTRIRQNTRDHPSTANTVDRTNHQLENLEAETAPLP

Kb (mu opioid receptor (MOR)): 281 pM | Kb [1]: 3380 pM | Kb [2]: 8900 pM
Compound: Cc1ccccc1CNCCc1ccc(Oc2ccc(C(N)=O)cn2)c(Cl)c1 [Example 476, 6-{2-Chloro-4-[2-(2-methyl-benzylamino)-ethyl]-phenoxy}-nicotinamide]

Compound: COc1cc(CNCCC(C)(C)C)ccc1Oc1ccc(C(N)=O)cn1.CS(=O)(=O)O [Example 446, 6-{4-[(3,3-Dimethylbutylamino)methyl]-2-methoxyphenoxy}nicotinamide methanesulfonate]
Ex Vivo Binding [3H]-Diprenorphine % Inhibition of at 6 hours 7 mg/kg of test compound [3]: 55%

Compound: NC(=O)c1ccc(Oc2ccc(CNCCC3CCCC3)cc2)nc1 [Example 309, 6-{4-[(2-Cyclopentyl-ethylamino)-methyl]-phenoxy}-nicotinamide]
minimal effective dose (Diet Induced Obese Rat): ≤ 3 mg/kg | Energy Balance Diet Induced Obese Rat (Diet Induced Obese Rat): -39 kcal/kg/day | Ex Vivo Binding [3H]-Diprenorphine % Inhibition of at 6 hours 7 mg/kg of test compound [3]: >60%

Compound: CC(C)CCNCc1ccc(Oc2ccc(C(N)=O)cn2)c(Cl)c1 [Example 229, 6-[2-Chloro-4-(3-methyl-butylamino-methyl)-phenoxy]nicotinamide]
Ex Vivo Binding [3H]-Diprenorphine % Inhibition of at 6 hours 7 mg/kg of test compound [3]: 77%

Compound: NC(=O)c1ccc(Oc2ccc3c(c2)CCCN(CCc2ccccc2)C3)nc1 [Example 447, 6-(2-Phenethyl-2,3,4,5-tetrahydro-1H-benzo[c]azepin-7-yloxy)nicotinamide]
Ex Vivo Binding [3H]-Diprenorphine % Inhibition of at 6 hours 7 mg/kg of test compound [3]: 62%

Kb (mu opioid receptor (MOR)): 843 pM | Kb [1]: 7860 pM | Kb [2]: 17500 pM
Compound: NC(=O)c1ccc(Oc2ccc(CCNCc3ccccc3)cc2Cl)nc1 [Example 475, 6-[4-(2-Benzylamino-ethyl)-2-chloro-phenoxy]-nicotinamide]

Kb (mu opioid receptor (MOR)): 68 pM | Kb [1]: 355 pM | Kb [2]: 708 pM
Compound: NC(=O)c1ccc(Oc2ccc(CNCCc3cccs3)cc2)nc1 [Example 253, 6-{4-[(2-Thiophen-2-yl-ethylamino)-methyl]-phenoxy}-nicotinamide]
minimal effective dose (Diet Induced Obese Rat): ≤ 3 mg/kg | Energy Balance Diet Induced Obese Rat (Diet Induced Obese Rat): -19 kcal/kg/day | Ex Vivo Binding [3H]-Diprenorphine % Inhibition of at 6 hours 7 mg/kg of test compound [3]: >40%

Compound: CC(C)(C)CCNCc1ccc(Oc2ccc(C(N)=O)cn2)c(Cl)c1 [Example 481, 6-{2-Chloro-4-[(3,3-dimethylbutylamino)-methyl]-phenoxy}-nicotinamide]
Ex Vivo Binding [3H]-Diprenorphine % Inhibition of at 6 hours 7 mg/kg of test compound [3]: 83%

melting point: 110 to 111 °C
Compound: CC(C)CCN(Cc1ccc(Oc2ccc(C(N)=O)cn2)c(F)c1)CC1CCCCC1 [Example 671, 6-[4-((3-Methyl-butyl), cyclohexylmethylaminomethyl)-2-fluorophenoxy]nicotinonamide]

Compound: NC(=O)c1ccc(Oc2ccc(CNCCC3CCCCC3)cc2)nc1 [Example 272, 6-{4-[(2-Cyclohexyl-ethylamino)-methyl]-phenoxy}-nicotinamide]
Ex Vivo Binding [3H]-Diprenorphine % Inhibition of at 6 hours 7 mg/kg of test compound [3]: 79%

melting point: 128 to 129 °C
Compound: NC(=O)c1ccc(Oc2ccc(CNCC3CC3)cc2F)nc1 [Example 673, 6-[4-(Cyclopropylmethylaminomethyl)-2-fluorophenoxy]nicotinonamide]

melting point: 152 to 153 °C
Compound: NC(=O)c1ccc(Oc2ccc(CNCC3CCCCC3)cc2F)nc1

Kb (mu opioid receptor (MOR)): 503 pM | Kb [1]: 6860 pM | Kb [2]: 30100 pM
Compound: NC(=O)c1ccc(Oc2ccc(CCNCc3cccc(Cl)c3)cc2Cl)nc1 [Example 479, 6-{2-Chloro-4-[2-(3-chloro-benzylamino)-ethyl]-phenoxy}-nicotinamide]

Compound: CCCCCNCc1ccc(Oc2ccc(C(N)=O)cn2)c(OC)c1 [Example 420, 6-(2-Methoxy-4-pentylaminomethylphenoxy)nicotinamide]
Ex Vivo Binding [3H]-Diprenorphine % Inhibition of at 6 hours 7 mg/kg of test compound [3]: 75%

Compound: O=C1CC[C@@]2(O)[C@H]3Cc4ccc(O)c5c4[C@@]2(CCN3CC2CC2)[C@H]1O5 [Naltrexone ®, Naltrexone HCl, reference compound]
minimal effective dose (Diet Induced Obese Rat): > 10 mg/kg | Energy Balance Diet Induced Obese Rat (Diet Induced Obese Rat): Not significant | Ex Vivo Binding [3H]-Diprenorphine % Inhibition of at 6 hours 7 mg/kg of test compound [3]: <40%

Compound: NC(=O)c1ccc(Oc2ccc(CNCCc3cccc(F)c3)cc2)nc1 [Example 256, 6-(4-{[2-(3-Fluoro-phenyl)-ethylamino]-methyl}-phenoxy)-nicotinamide]
Kb (mu opioid receptor (MOR)): 72 pM | Kb [1]: 894 pM | Ex Vivo Binding [3H]-Diprenorphine % Inhibition of at 6 hours 7 mg/kg of test compound [3]: 40% | Kb [2]: 677 pM

Compound: COc1cc(CNCCc2ccccc2F)ccc1Oc1ccc(C(N)=O)cn1 [Example 431, 6-(4-{[2-(2-fluorophenyl)ethylamino]methyl}-2-methoxyphenoxy)nicotinamide]
Ex Vivo Binding [3H]-Diprenorphine % Inhibition of at 6 hours 7 mg/kg of test compound [3]: 54%

Compound: Cc1cc(CNCCC(C)(C)C)ccc1Oc1ccc(C(N)=O)cn1 [Example 238, 6-{4-[(3,3-Dimethyl-butylamino)-methyl]-2-methyl-phenoxy}-nicotinamide]
Ex Vivo Binding [3H]-Diprenorphine % Inhibition of at 6 hours 7 mg/kg of test compound [3]: 59%

Compound: CCCCNCc1ccc(Oc2ccc(C(N)=O)cn2)c(C)c1 [Example 240, 6-(4-Butylaminomethyl-2-methyl-phenoxy)-nicotinamide]
Ex Vivo Binding [3H]-Diprenorphine % Inhibition of at 6 hours 7 mg/kg of test compound [3]: 38%

Compound: NC(=O)c1ccc(Oc2ccc(CNCCc3ccc(F)cc3)cc2)cc1 [Example 294, 4-(4-{[2-(4-Fluoro-phenyl)-ethylamino]-methyl}-phenoxy)-benzamide]
Ex Vivo Binding [3H]-Diprenorphine % Inhibition of at 6 hours 7 mg/kg of test compound [3]: 50%

Compound: CCCCCNCc1ccc(Oc2ccc(C(N)=O)nc2)c(F)c1 [Example 405, 5-(2-Fluoro-4-pentylaminomethylphenoxy)pyridine-2-carboxamide]
Ex Vivo Binding [3H]-Diprenorphine % Inhibition of at 6 hours 7 mg/kg of test compound [3]: 55%

Kb (mu opioid receptor (MOR)): 410 pM | Kb [1]: 4500 pM | Kb [2]: 5780 pM
Compound: NC(=O)c1ccc(Oc2ccc(CCNCc3cccc(F)c3)cc2Cl)nc1 [Example 478, 6-{2-Chloro-4-[2-(3-fluoro-benzylamino)-ethyl]-phenoxy}-nicotinamide]

Compound: CC(C)CCNCc1ccc(Oc2ccc(C(N)=O)cn2)c(F)c1 [Example 228, 6-[2-Fluoro-4-(3-methyl-butylamino-methyl)-phenoxy]nicotinamide]
minimal effective dose (Diet Induced Obese Rat): 0.3 mg/kg | Energy Balance Diet Induced Obese Rat (Diet Induced Obese Rat): -81 kcal/kg/day | Ex Vivo Binding [3H]-Diprenorphine % Inhibition of at 6 hours 7 mg/kg of test compound [3]: >65%

Kb (mu opioid receptor (MOR)): 200 pM | Kb [1]: 400 pM | Kb [2]: 4400 pM
Compound: CC(C)CCNCc1ccc(Oc2ccc(C(N)=O)cn2)cc1 [Example 271, 6-{4-[(3-Methyl-butylamino)-methyl]-phenoxy}-nicotinamide]
minimal effective dose (Diet Induced Obese Rat): 0.3 mg/kg | Energy Balance Diet Induced Obese Rat (Diet Induced Obese Rat): -35 kcal/kg/day | Ex Vivo Binding [3H]-Diprenorphine % Inhibition of at 6 hours 7 mg/kg of test compound [3]: >40%

Compound: Cc1cc(CNCCC(C)C)ccc1Oc1ccc(C(N)=O)cn1 [Example 227, 6-[2-Methyl-4-(3-methyl-butylamino-methyl)-phenoxy]nicotinamide]
minimal effective dose (Diet Induced Obese Rat): 0.3 mg/kg | Energy Balance Diet Induced Obese Rat (Diet Induced Obese Rat): -68 kcal/kg/day | Ex Vivo Binding [3H]-Diprenorphine % Inhibition of at 6 hours 7 mg/kg of test compound [3]: 55%

Compound: Cc1cc(CNCCC(C)C)ccc1Oc1ccc(C(N)=O)cc1F [Example 246, 3-Fluoro-4-{2-methyl-4-[(3-methyl-butylamino)-methyl]-phenoxy}-benzamide]
Ex Vivo Binding [3H]-Diprenorphine % Inhibition of at 6 hours 7 mg/kg of test compound [3]: 58%

Compound: CC(C)(C)CCNCc1ccc(Oc2ccc(C(N)=O)cn2)cc1 [Example 263, 6-{4-[(3,3-Dimethyl-butylamino)-methyl]-phenoxy}-nicotinamide]
minimal effective dose (Diet Induced Obese Rat): ≤ 3 mg/kg | Energy Balance Diet Induced Obese Rat (Diet Induced Obese Rat): -56 kcal/kg/day | Ex Vivo Binding [3H]-Diprenorphine % Inhibition of at 6 hours 7 mg/kg of test compound [3]: 62%

Reference: US7531557B2, “Diaryl ethers as opioid receptor antagonists” (Eli Lilly and Company, priority 2002, dated 2009)
